# Like-named read-outs stand apart in the source and are kept apart here.
# Legend:
# [1] = target: E. coli PBP3 (Escherichia coli (strain K12), UniProt P0AD68); test: E. coli PBP3 Bocillin-FL fluorescence polarization competition binding assay
# From the text: To determine the ability of boronic acid-based test PBP inhibitors to bind Penicillin Binding Proteins (PBPs), Bocillin-FL (fluorescently-labeled penicillin V; ThermoFisher Scientific) was used in a fluorescence polarization (FP) competition binding assay to assess inhibitor binding to PBP2, PBP3 or PBP4 from Escherichia coli. PBPs were cloned and purified as described previously (King, D. T, et al., ACS Infectious Diseases 2015, 1, 175-184). To establish assay conditions for competition binding, an enzyme titration/saturation binding experiment was initially performed. Bocillin-FL was prepared at 0.2 μM in a buffer comprised of 50 mM Hepes (pH 8.0), 300 mM NaCl and 5% (v/v) glycerol. Saturation binding was performed by mixing 40 μl of PBP solutions ranging in concentrations from 0-12 μM with 40 μl of the 0.2 μM Bocillin-FL solution, in individual wells of a black 384-well microplate. FP was measured immediately upon mixing (Excitation, 490 nm; Emission, 520 nm; g-factor, 0.96), using a Cytation3 (BioTek) microplate reader and measured continuously for up to 120 minutes. […] Assays (80 μl final volume) were performed with PBPs at a final concentration of 1.5 μM, Bocillin-FL at 0.1 μM and beta-lactam concentrations that ranged from 0-1000 μM. […] Bocillin-FL was added and the FP immediately measured for 60 minutes (90 minutes for PBP2). The beta-lactam potency was reported as the concentration of beta-lactam required to reduce binding of Bocillin-FL by […] (EC50). […] Binding assays for boronic acid PBP inhibitors were performed in an identical fashion.
# [2] = tested on: E. coli ATCC 25922; test: Broth microdilution MIC, E. coli ATCC 25922; type: cell-based; settings: Escherichia coli
# Method: (§1) To determine the ability of test compounds to potentiate the inhibition of the growth of bacterial strains, classic cell based broth microdilution minimum inhibitory concentration (MIC) assays were employed. MIC assays are performed according to CLSI methods except where otherwise noted (CLSI, 2011 and CLSI, 2009). The reference type strain E. coli ATCC 25922, the wild-type parent strain E. coli AG100, the hyper-permeable E. coli 901C and E. coli D22 and the E. coli AG100A strain lacking the acrAB efflux pump encoding genes were used to determine the ability of the PBP inhibitors to penetrate the outer membrane of gram-negative bacteria and inhibit bacterial growth. […] The P. aeruginosa PAO1, P. aeruginosa ATCC 27853 and A. baumannii ATCC 19606, along with the hyper-permeable P. aeruginosa ATCC 35151 and an engineered efflux pump-compromised strain of P. aeruginosa (ΔmexAB-oprM) were used to determine the ability of PBP inhibitors to penetrate the outer membrane of P. aeruginosa and A. baumannii and assess antibacterial activity against these important gram-negative organisms.
# (§2) Briefly, cryo-preserved bacterial cultures of challenge strains are streaked for isolation on appropriate agar medium, in this case Mueller Hinton II agar. Following incubation to allow growth of the colonies, plates are sealed with parafilm and stored refrigerated for up to two weeks. For preparation of assay inoculum and to ensure low variability, at least 5 colonies are picked from the agar plates with an inoculating loop and aseptically transferred to a culture tube containing 3 mL of Mueller-Hinton Broth (supplemented with divalent cations to required levels based on Manufacturers' certification). The broth culture is grown for 3-5 hours at 37° C. with shaking at 200 rpm. Meanwhile, 2-fold serial dilutions of test compounds are conducted in a 96 well plate with a final volume of 75 μL per well at 2-fold the final desired concentration. After the dilution plates are set up the growing cultures are then diluted in a cuvette containing MH II broth and the optical density is measured at 600 nm. The Inoculum is diluted such that 75 μL of this culture in Mueller-Hinton Broth results in a starting bacterial concentration of 5×10^5 CFU/mL when added to the dilution plates. The plates are incubated for 16-20 hours at 37° C. The MIC values are read visually as the lowest concentration well with no bacterial growth.
# [3] = tested on: E. coli AG100; test: Broth microdilution MIC, E. coli AG100 (wild-type parent); type: cell-based; settings: Escherichia coli; wild-type parent E. coli AG100, broth microdilution; read-out: MIC E. coli AG100
# Method: To determine the ability of test compounds to potentiate the inhibition of the growth of bacterial strains, classic cell based broth microdilution minimum inhibitory concentration (MIC) assays were employed.
# as §2
# [4] = tested on: E. coli 901C; test: microbe, parasite or virus in culture; type: cell-based; settings: Escherichia coli; hyper-permeable E. coli 901C, broth microdilution; read-out: MIC E. coli 901C
# Method: as §1, §2
# [5] = tested on: E. coli AG100A; test: microbe, parasite or virus in culture; type: cell-based; settings: Escherichia coli, read-out: MIC E. coli AG100A
# Method: as §1, §2
# [6] = tested on: E. coli D22; test: microbe, parasite or virus in culture; type: cell-based; settings: Escherichia coli; hyper-permeable E. coli D22, broth microdilution; read-out: MIC E. coli D22
# Method: as §1, §2
# [7] = tested on: K. pneumoniae SI-117; test: microbe, parasite or virus in culture; type: cell-based; settings: Klebsiella pneumoniae, SI117, read-out: MIC K. pneumoniae SI-117
# Method: as §1, §2
# [8] = tested on: K. pneumoniae UMM; test: microbe, parasite or virus in culture; type: cell-based; settings: Klebsiella pneumoniae; K. pneumoniae UMM producing SHV-5 and KPC-2; read-out: MIC K. pneumoniae UMM
# Method: as §1, §2
# [9] = tested on: K. pneumoniae 848844; test: microbe, parasite or virus in culture; type: cell-based, Klebsiella pneumoniae; settings: Klebsiella pneumoniae; K. pneumoniae 848844 producing SHV-11 and KPC-2; read-out: MIC K. pneumoniae 848844
# Method: as §1, §2
# [10] = ATCC25922, E. coli ATCC 25922, broth microdilution, read-out: MIC E. coli 25922
# [11] = fluorescence polarization competition binding with Bocillin-FL, read-out: E. coli K12 PBP3 Potency
# Sequence of E. coli PBP3 (P0AD68 whole entry): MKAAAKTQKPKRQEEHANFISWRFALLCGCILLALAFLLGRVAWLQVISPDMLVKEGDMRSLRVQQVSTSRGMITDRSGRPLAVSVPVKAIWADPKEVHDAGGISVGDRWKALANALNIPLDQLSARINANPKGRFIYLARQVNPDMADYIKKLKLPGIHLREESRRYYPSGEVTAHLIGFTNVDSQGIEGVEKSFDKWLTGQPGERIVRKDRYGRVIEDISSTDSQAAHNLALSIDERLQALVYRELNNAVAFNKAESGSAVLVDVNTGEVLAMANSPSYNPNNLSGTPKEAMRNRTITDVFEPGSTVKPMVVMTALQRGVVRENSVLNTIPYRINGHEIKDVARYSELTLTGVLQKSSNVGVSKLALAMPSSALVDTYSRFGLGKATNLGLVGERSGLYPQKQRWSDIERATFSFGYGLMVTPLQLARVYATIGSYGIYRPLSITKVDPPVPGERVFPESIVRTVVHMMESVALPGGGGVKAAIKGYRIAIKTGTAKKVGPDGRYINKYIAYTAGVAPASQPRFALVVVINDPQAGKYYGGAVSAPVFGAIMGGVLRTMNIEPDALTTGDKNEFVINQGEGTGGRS
SMILES,EC50 [1] [µM],"MIC [2, 10] [µg/mL]",MIC [3] [µg/mL],MIC [4] [µg/mL],MIC [5] [µg/mL],MIC [6] [µg/mL],MIC [7] [µg/mL],MIC [8] [µg/mL],MIC [9] [µg/mL],"EC50 [1, 11] [µM]","MIC ([2]; ATCC25922, read-out: MIC E. coli 25922) [µg/mL]"
"CCN1CCN(C(=O)N[C@H](C(=O)N[C@H]2Cc3cccc(C(=O)O)c3OB2O)c2ccc(S(N)(=O)=O)c(O)c2)C(=O)C1=O [Example 166, (R)-3-((S)-2-(4-ethyl-2,3-dioxopiperazine-1-carboxamido)-2-(3-hydroxy-4-sulfamoylphenyl)acetamido)-2-hydroxy-3,4-dihydro-2H-benzo[e][1,2]oxaborinine-8-carboxylic acid]",30 to 500,32 to 64,32 to 64,< 0.25,2 to 4,2 to 4,> 128,32 to 64,> 128,,
"CCN1CCN(C(=O)N[C@@H](C(=O)N[C@H]2Cc3cccc(C(=O)O)c3OB2O)c2ccc(S(N)(=O)=O)c(O)c2)C(=O)C1=O [Example 167, (R)-3-((R)-2-(4-ethyl-2,3-dioxopiperazine-1-carboxamido)-2-(3-hydroxy-4-sulfamoylphenyl)acetamido)-2-hydroxy-3,4-dihydro-2H-benzo[e][1,2]oxaborinine-8-carboxylic acid]",,32 to 64,32 to 64,< 0.25,2 to 4,2 to 4,> 128,32 to 64,> 128,< 30,
"CCN1CCN(C(=O)N[C@H](C(=O)N[C@H]2Cc3cccc(C(=O)O)c3OB2O)c2ccc(S(N)(=O)=O)c(OC)c2)C(=O)C1=O [Example 168, (R)-3-((S)-2-(4-ethyl-2,3-dioxopiperazine-1-carboxamido)-2-(3-methoxy-4-sulfamoylphenyl)acetamido)-2-hydroxy-3,4-dihydro-2H-benzo[e][1,2]oxaborinine-8-carboxylic acid]",30 to 500,> 128,> 128,0.5 to 1,8 to 16,8 to 16,> 128,> 128,> 128,,
"NS(=O)(=O)c1ccc([C@H](NC(=O)N2CCN(CCBr)C(=O)C2=O)C(=O)N[C@H]2Cc3cccc(C(=O)O)c3OB2O)cc1O [Example 171, (R)-3-((S)-2-(4-(2-bromoethyl)-2,3-dioxopiperazine-1-carboxamido)-2-(3-hydroxy-4-sulfamoylphenyl)acetamido)-2-hydroxy-3,4-dihydro-2H-benzo[e][1,2]oxaborinine-8-carboxylic acid]",30 to 500,,32 to 64,0.5 to 1,8 to 16,0.5 to 1,> 128,32 to 64,> 128,,32 to 64
"CCN1CCN(C(=O)N[C@H](C(=O)N[C@H]2Cc3cccc(C(=O)O)c3OB2O)c2ncc(O)cc2F)C(=O)C1=O [Example 176, (R)-3-((S)-2-(4-ethyl-2,3-dioxopiperazine-1-carboxamido)-2-(3-fluoro-5-hydroxypyridin-2-yl)acetamido)-2-hydroxy-3,4-dihydro-2H-benzo[e][1,2]oxaborinine-8-carboxylic acid]",,32 to 64,32 to 64,< 0.25,2 to 4,2 to 4,32 to 64,32 to 64,> 128,< 30,
"CCN1CCN(C(=O)NC(C(=O)N[C@H]2Cc3cccc(C(=O)O)c3OB2O)c2ncc(O)cc2C)C(=O)C1=O (stereo partly drawn) [Example 178, (3R)-3-(2-(4-ethyl-2,3-dioxopiperazine-1-carboxamido)-2-(5-hydroxy-3-methylpyridin-2-yl)acetamido)-2-hydroxy-3,4-dihydro-2H-benzo[e][1,2]oxaborinine-8-carboxylic acid]",30 to 500,> 128,> 128,8 to 16,32 to 64,32 to 64,> 128,> 128,> 128,,

# From US12173018B2, “Penicillin-binding protein inhibitors” (priority 2018, dated 2024)
